Assay results as given in patent US20100113544A1, “Suppressant for cerebral infarction attributed to long-time ischemia” (Ehime University, priority 2004, published 2010).
Marks after values point to notes of the source that are not given here.

What was measured:
[1] = patients who received the drug; cited from earlier work
[2] = tested on: cerebral infarction after 2 hours middle cerebral artery occlusion in male Wistar rats; test: Size of cerebral infarction (triphenyltetrazolium chloride staining, planimetry) 24 h after reperfusion following 2 h middle cerebral artery occlusion; type: in vivo, rat; conditions: for size of cerebral infarction, Cerebral cortex / size of cerebral infarction, Striatum / size of cerebral infarction, Total: mean ± SD
Text: These rats were anesthetized with a gas mixture of 2% halothane, 49% oxygen and 49% laughing gas, i.e. N2O, and kept under spontaneous breathing. Subsequently, a median incision was made in the neck of the rat placed on its back, and the right common carotid artery was exposed. After an intraperitoneal injection of 100 units of heparin, the root of the right middle cerebral artery was occluded by inserting 4·0 nylon thread coated with silicone into the right internal carotid artery from the bifurcation of the internal and external carotid arteries. The tip of the nylon thread was placed 18 mm from the bifurcation. After suture of the incision of the skin, the rats were allowed to recover from anesthesia. During surgery, an electronic thermometer was inserted into the rectum, and the temperature of the rectum was maintained at 37.0±0.1° C. with a lamp.
Five minutes before reperfusion of blood flow, the rats were anesthetized again. After opening the skin suture, the cerebral blood flow was resumed by removing the nylon thread by 5 mm 2 hours after middle cerebral artery occlusion. […] After recovery from anesthesia, the rats were allowed to access food and water freely.
Twenty-four hours after recovery of blood flow, sodium pentobarbital was intraperitoneally administered to the rats for anesthesia. Subsequently, the brain was perfused with heparinized-physiological saline, and the rat was decapitated. The brain was quickly taken out, and rinsed in physiological saline. The brain was sliced coronally between the optic chiasm and the caucal edge of the mammillary body at a thickness of 2 mm. These brain slices were subjected to incubation with 2% triphenyltetrazolium chloride in phosphate buffer (0.1 mol/L, pH 7.4) at 37° C. As a result, due to the action of dehydrogenase present in viable cells, triphenyltetrazolium chloride was reduced, and the tissue was stained in dark red. On the other hand, the dead tissue in the infarcted area was not stained. These brain slices were preserved in phosphate-buffered formalin overnight. […] The obtained size of cerebral infarction was subjected to analysis of variance and the Scheffe test.
The values in the table (unit: mm^3) indicate the size of cerebral infarction as the “mean ±standard deviation”, while “*” denotes a case in which it was significant versus the control group by p<0.05, and “**” denotes a case in which it was significant versus the control group by p<0.01.

[3] = tested on: neutrophils; test: Number of neutrophils in brain sections (myeloperoxidase immunohistochemistry) after 2 h middle cerebral artery occlusion and reperfusion; type: in vivo, rat; conditions: for number of neutrophils, +0.7 mm to the bregma / number of neutrophils, +1.7 mm to the bregma / number of neutrophils, −0.3 mm to the bregma: 1000 mg/kg i.p. twice
Protocol: (§1) One of the causes for organ dysfunction resulting from ischemia is reperfusion injury after recovery of blood flow, and the inflammatory response is an important factor which induces reperfusion injury. Therefore, as an index of inflammation subsequent to reperfusion of blood flow, the numbers of neutrophils and macrophages were determined.
(§2) Thirty-two male Wistar rats weighting about 300 g were divided into 4 groups with 8 rats in each. The middle cerebral artery of all rats was occluded for two hours, as shown in Example 1. […] Subsequently, 12 or 24 hours after recovery of blood flow, the brain was taken out after perfusion with physiological saline. Frozen sections having 6 μm thick was prepared at a distance of about 1.7 mm rostral to the bregma, i.e. anterior fontanel, 0.7 mm rostral to the bregma toward the rostral side, and 0.3 mm caudal to the bregma.
After observing these frozen sections by light microscopy, the total numbers of neutrophils on the ischemic and non-ischemic sides were obtained rseparately. Also, frozen sections obtained from identical rats were subjected to immunochemistry with an antibody for ED1 which is a cell surface marker of macrophages. […] Therefore, with regard to ED1-positive cells, the difference in the number of cells between the ischemic and non-ischemic sides was calculated. The difference was determined as the number of macrophages and compared between each corresponding group.

[4] = tested on: ED1-positive cells (macrophages); test: Number of ED1-positive cells / macrophages in brain sections (ED1 immunohistochemistry) after 2 h middle cerebral artery occlusion and reperfusion; type: in vivo, rat; conditions: for number of ED1-positive cells: versus control; for number of ED1-positive cells, Differences (number of macrophages), +0.7 mm to the bregma / number of ED1-positive cells, Differences (number of macrophages), +1.7 mm to the bregma / number of ED1-positive cells, Differences (number of macrophages), −0.3 mm to the bregma: difference between ischemic and non-ischemic sides; for number of ED1-positive cells, Differences (number of macrophages), +0.7 mm to the bregma / number of ED1-positive cells, Differences (number of macrophages), +1.7 mm to the bregma / number of ED1-positive cells, Differences (number of macrophages), −0.3 mm to the bregma / number of ED1-positive cells, +0.7 mm to the bregma / number of ED1-positive cells, +1.7 mm to the bregma / number of ED1-positive cells, −0.3 mm to the bregma: 1000 mg/kg i.p. twice
Protocol: as §1, §2
After observing these frozen sections by light microscopy, the total numbers of neutrophils on the ischemic and non-ischemic sides were obtained rseparately. Also, frozen sections obtained from identical rats were subjected to immunochemistry with an antibody for ED1 which is a cell surface marker of macrophages. ED1 is considered to exist in cells besides macrophages, and in fact, ED1-positive cells were also observed on the non-ischemic side in the experiment. However, as in Table 2, neutrophils were not observed on non-ischemia side, where inflammation was not observed. Therefore, with regard to ED1-positive cells, the difference in the number of cells between the ischemic and non-ischemic sides was calculated. The difference was determined as the number of macrophages and compared between each corresponding group. In Tables 2 and 3, “*” denotes a case in which significant differences versus the control group were observed by p<0.05 by Fisher's PLSD (protected least significant difference) tests, and “**” denotes a case in which significant difference was observed by p<0.01.

[5] = tested on: pyramidal neurons in the hippocampal CA-1 region; conditions: administration prior to transient ischemia (5 or 10 minutes forebrain ischemia), rat; cited from earlier work
[6] = tested on: neurons in the rat striatum; conditions: administered 4 times: immediately, 6, 24 and 48 hours after 15 minutes of transient ischemia, rats; cited from earlier work
[7] = administration after ischemia, 200 mg/kg i.p. immediately and 6 h after reperfusion
[8] = administration after ischemia, 500 mg/kg i.p. immediately and 6 h after reperfusion
[9] = administration after ischemia, 1000 mg/kg i.p. immediately and 6 h after reperfusion
[10] = administration before ischemia, 1000 mg/kg i.p. once 10 min before occlusion, 24 h after reperfusion
[11] = 12 hours after onset of reperfusion, ischemic side
[12] = 12 hours after onset of reperfusion, non-ischemic side
[13] = 24 hours after onset of reperfusion, ischemic side
[14] = 24 hours after onset of reperfusion, non-ischemic side
[15] = 12 hours after the onset of reperfusion
[16] = 12 hours after the onset of reperfusion, ischemic side
[17] = 12 hours after the onset of reperfusion, non-ischemic side
[18] = 24 hours after the onset of reperfusion
[19] = 24 hours after the onset of reperfusion, ischemic side
[20] = 24 hours after the onset of reperfusion, non-ischemic side

CC1=NN(c2ccccc2)C(=O)C1 [edaravone]
patients who showed abnormal values in laboratory tests on the liver function [1]: 21.4%

N[C@@H](Cc1c[nH]cn1)C(=O)O [histidine]
infarcted volume compared with that of the control group ([2]; 200 mg/kg immediately after reperfusion and 6 hours thereafter): 71% | infarcted volume compared with that of the control group ([2]; 500 mg/kg immediately after reperfusion and 6 hours thereafter): 39% | infarcted volume compared with that of the control group ([2]; 1000 mg/kg immediately after reperfusion and 6 hours thereafter): 7% | size of cerebral infarction, Cerebral cortex [2, 7]: 78.8 ± 52.3 mm^3 | size of cerebral infarction, Striatum [2, 7]: 34.3 ± 23.0 mm^3 | size of cerebral infarction, Total [2, 7]: 113.2 ± 74.0 mm^3 | size of cerebral infarction, Cerebral cortex [2, 8]: 39.9 ± 44.5 mm^3 | size of cerebral infarction, Striatum [2, 8]: 19.1 ± 24.4** mm^3 | size of cerebral infarction, Total [2, 8]: 59.0 ± 63.4* mm^3 | size of cerebral infarction, Cerebral cortex [2, 9]: 7.5 ± 13.3** mm^3 | size of cerebral infarction, Striatum [2, 9]: 3.3 ± 12.8** mm^3 | size of cerebral infarction, Total [2, 9]: 10.7 ± 14.5** mm^3 | size of cerebral infarction, Cerebral cortex [2, 10]: 81.4 ± 26.0 mm^3 | size of cerebral infarction, Striatum [2, 10]: 34.4 ± 16.0 mm^3 | size of cerebral infarction, Total [2, 10]: 115.8 ± 39.2 mm^3 | size of infarction compared with that of the control group ([2]; pre-ischemic histidine 1000 mg/kg administration group): no significant difference | neutrophil infiltration ([3]; 12 hours after ischemia, histidine-administration group versus control): significantly suppressed | number of neutrophils, +0.7 mm to the bregma [3, 11]: 128 ± 82 | number of neutrophils, +1.7 mm to the bregma [3, 11]: 101 ± 80 | number of neutrophils, −0.3 mm to the bregma [3, 11]: 106 ± 54 | number of neutrophils, +0.7 mm to the bregma [3, 12]: 0 ± 0 | number of neutrophils, +1.7 mm to the bregma [3, 12]: 1 ± 2 | number of neutrophils, −0.3 mm to the bregma [3, 12]: 0 ± 0 | number of neutrophils, +0.7 mm to the bregma [3, 13]: 250 ± 169 | number of neutrophils, −0.3 mm to the bregma [3, 13]: 287 ± 162 | number of neutrophils, +0.7 mm to the bregma [3, 14]: 0 ± 0 | number of neutrophils, +1.7 mm to the bregma [3, 14]: 1 ± 2 | number of neutrophils, −0.3 mm to the bregma [3, 14]: 0 ± 0 | number of ED1-positive cells ([4]; 12 hours after ischemia for 2 hours, cross section at +0.7 mm rostral to the bregma): significantly decreased | number of ED1-positive cells, Differences (number of macrophages), +0.7 mm to the bregma [4, 15]: 123 ± 100* | number of ED1-positive cells, Differences (number of macrophages), +1.7 mm to the bregma [4, 15]: 135 ± 101 | number of ED1-positive cells, Differences (number of macrophages), −0.3 mm to the bregma [4, 15]: 92 ± 107 | number of ED1-positive cells, +0.7 mm to the bregma [4, 16]: 450 ± 190 | number of ED1-positive cells, +1.7 mm to the bregma [4, 16]: 366 ± 149 | number of ED1-positive cells, −0.3 mm to the bregma [4, 16]: 363 ± 186 | number of ED1-positive cells, +0.7 mm to the bregma [4, 17]: 328 ± 113 | number of ED1-positive cells, +1.7 mm to the bregma [4, 17]: 238 ± 95 | number of ED1-positive cells, −0.3 mm to the bregma [4, 17]: 309 ± 72 | number of ED1-positive cells ([4]; 24 hours after ischemia, all cross sections): significant decreases | number of ED1-positive cells, Differences (number of macrophages), +0.7 mm to the bregma [4, 18]: 141 ± 104* | number of ED1-positive cells, Differences (number of macrophages), +1.7 mm to the bregma [4, 18]: 125 ± 72* | number of ED1-positive cells, Differences (number of macrophages), −0.3 mm to the bregma [4, 18]: 190 ± 93* | number of ED1-positive cells, +0.7 mm to the bregma [4, 19]: 264 ± 101 | number of ED1-positive cells, +1.7 mm to the bregma [4, 19]: 230 ± 57 | number of ED1-positive cells, −0.3 mm to the bregma [4, 19]: 340 ± 107 | number of ED1-positive cells, +0.7 mm to the bregma [4, 20]: 124 ± 34 | number of ED1-positive cells, +1.7 mm to the bregma [4, 20]: 104 ± 28 | number of ED1-positive cells, −0.3 mm to the bregma [4, 20]: 150 ± 46 | programmed death (delayed neuronal death) of neurons [5]: depressed | neuronal death 7 days after ischemia caused by apoptosis [6]: depressed
